Test results: patent US20120295982A1, “TREATING HUMAN MALE COPD PATIENTS WITH ORAL BEDORADRINE” (MediciNova, Inc., priority 2011, published 2012)
Counter-ions that a name gives are not always drawn.

Assays:
[1] = Phase I open-label single-dose crossover oral bioavailability / PK test of bedoradrine sulfate in healthy volunteers; format: in vivo, human; details: for clearance: CL; for Vd: Vss; for half-life: t½
Experimental: The test was an open-label, randomized, crossover, single dose test of 600 μg (0.6 mg) bedoradrine sulfate in liquid form administered orally and of 300 μg (0.3 mg) bedoradrine sulfate administered by i.v. infusion. All subjects were in an overnight fasting state. Four male and four female subjects were enrolled in the test and received two administration sequences: Day 1: n=4 received 15-minute intravenous infusion of bedoradrine sulfate (300 μg), the other 4 received an oral administration of bedoradrine sulfate (600 μg); Day 8: the 4 subjects administered i.v. MN-221 on Day 1, received oral bedoradrine sulfate and the 4 subjects administered orally with MN-221 on Day 1, receive i.v. bedoradrine sulfate. Subjects were domiciled in the clinical research unit (CRU) for two nights, beginning on Day minus one (−1), one day prior to dosing. First dosing occurred in the morning of Day 1. Subjects were discharged from the CRU approximately 24 hours after dosing (Day 2). There was a one-week washout between doses and subjects returned to the CRU (Day 7) and were domiciled for two days. On the morning of Day 8, subjects received the opposite dosing state (from Day 1) and subjects were then discharged from the CRU approximately 24 hours after dosing (Day 9). Blood samples for plasma selection and bioanalysis were collected on the dosing days before dosing (baseline) and at 0.25, 1, 1.5, 2, 3, 4, 6, 9, 12, and 24 hr after dosing. The bioanalytical results were obtained following HPLC/MS/MS procedures. The limit of quantitation (LLOQ) for these methods was 30.3 picogram (pg)/mL. Plasma MN-221 concentrations were tabulated separately by subject and sampling time and summarized by descriptive statistics. Descriptive statistics included the sample size, mean, standard deviation, median, range, and the coefficient of variation (CV %). Mean plasma concentration-time profiles were illustrated graphically. All plasma concentrations below the limit of quantitation (BLQ) values occurring at predose and up to the first measurable concentration may otherwise be imputed as 1 pg/mL in some analyses or LLOQ. Pharmacokinetic parameters were calculated from individual plasma concentrations-time data by model-independent analysis methods using WinNonlin™. The following parameters were calculated: Cmax (observed maximum plasma concentration), tmax (observed time of maximum plasma concentration), t1/2 (terminal half-life calculated as ln(2)/λz), AUC0-24 (area under the plasma concentration-time curve calculated using the linear trapezoidal rule from time zero to time 24 hr), vss (volume of distribution at steady state), Cl (clearance), and Oral F % (% oral bioavailability). All pharmacokinetic parameters were summarized using descriptive statistics that included the sample size, mean, standard deviation, median, range, and coefficient of variation. Select t-test or non-parametric statistical analysis was optional.

[2] = tested on: moderate-to-severe COPD patients; assay: Phase Ib placebo-controlled test of i.v. MN-221 in moderate-to-severe COPD patients; format: in vivo, human; details: for FEV1 increase as compared to baseline (average): end of infusion
Experimental: This example provides certain preferred oral dosages for treating male COPD patients according to this invention. A randomized, double-blind, placebo-controlled phase Ib clinical test evaluated MN-221 in 48 moderate-to-severe COPD patients who received a 1 hour intravenous (i.v.) infusion of MN-221 at three different escalating dose levels (300 micrograms, 600 micrograms, or 1200 micrograms) or placebo.
(a) diagnosed (e.g., by clinical history, 20 pack/year smoking history, physical examination [PE], and spirometry) COPD treated for ≧3 months prior to Screen Visit 1; (b) ≧30% FEV1<80% and FEV1/FVC (forced vital capacity) ratio<0.7 at Screen Visits 1 and 2; and (c) increase in FEV1 of 12%, over the pre-albuterol FEV1 within 30 min after inhalation of up to 4 puffs of albuterol delivered by Metered Dose Inhaler (MDI) with spacer at the Screen Visit 1.
48 subjects with stable, moderate-to-severe chronic obstructive pulmonary disease were administered MN-221. The following does were administered. 10 μg/min for 15 min+3.3 μg/min for 45 min (1-hr infusion total dose 300 μg) or placebo; 20 μg/min for 15 min+6.67 μg/min for 45 min (1-hr infusion total dose 600 μg) or placebo; and 40 μg/min for 15 min+13.3 μg/min for 45 min (1-hr infusion total dose 1,200 μg) or placebo.

[3] = both sexes, human, in vivo, iv, 300 ug, mean
[4] = both sexes, human, in vivo, iv, 300 ug, median
[5] = both sexes, human, in vivo, iv, 300 ug, range
[6] = both sexes, human, in vivo, po, 600 ug, mean
[7] = both sexes, human, in vivo, po, 600 ug, median
[8] = both sexes, human, in vivo, po, 600 ug, range
[9] = both, human, in vivo, po, 600 ug
[10] = female, human, in vivo, po, 600 ug
[11] = human one, in vivo, iv, 300 ug, individual subject
[12] = human two, in vivo, iv, 300 ug, individual subject

fold lower oral peak level than Cmax after i.v. dosing ([1]; 0.6 mg oral vs 0.3 mg i.v.): > 30 fold
AUC ([1]; both sexes, human, in vivo, iv, 0.3 mg): ~13 ng·h/mL
AUC(0-t) ([1]; both sexes, human, in vivo, iv, 300 ug, AUC 0-24 h, mean): 13.2 ng·h/mL
AUC(0-t) ([1]; both sexes, human, in vivo, iv, 300 ug, AUC 0-24 h, median): 14.1 ng·h/mL
AUC(0-t) ([1]; both sexes, human, in vivo, iv, 300 ug, AUC 0-24 h, range): 9.31 to 15.5 ng·h/mL
clearance [1, 3]: 322 mL/min
clearance [1, 4]: 307 mL/min
clearance [1, 5]: 252 to 425 mL/min
Cmax ([1]; both sexes, human, in vivo, iv, 300 ug, Cmax, mean): 10.7 ng/mL
Cmax ([1]; both sexes, human, in vivo, iv, 300 ug, Cmax, median): 12.2 ng/mL
Cmax ([1]; both sexes, human, in vivo, iv, 300 ug, Cmax, range): 6.76 to 14.8 ng/mL
Tmax [1, 3]: 0.25 h
Tmax [1, 4]: 0.25 h
Vd [1, 3]: 222 L
Vd [1, 4]: 206 L
Vd [1, 5]: 149 to 325 L
half-life [1, 3]: 12.2 h
half-life [1, 4]: 12.5 h
half-life [1, 5]: 7.4 to 14.6 h
AUC(0-t) ([1]; both sexes, human, in vivo, po, 600 ug, AUC 0-24 h, mean): 1.94 ng·h/mL
AUC(0-t) ([1]; both sexes, human, in vivo, po, 600 ug, AUC 0-24 h, median): 1.85 ng·h/mL
AUC(0-t) ([1]; both sexes, human, in vivo, po, 600 ug, AUC 0-24 h, range): 1.05 to 3.02 ng·h/mL
Cmax ([1]; both sexes, human, in vivo, po, 600 ug, Cmax, mean): 0.305 ng/mL
Cmax ([1]; both sexes, human, in vivo, po, 600 ug, Cmax, median): 0.301 ng/mL
Cmax ([1]; both sexes, human, in vivo, po, 600 ug, Cmax, range): 0.163 to 0.5 ng/mL
Tmax [1, 6]: 1.2 h
Tmax [1, 7]: 1.5 h
Tmax [1, 8]: 0.25 to 2 h
half-life [1, 6]: 16 h
half-life [1, 7]: 15.2 h
half-life [1, 8]: 11 to 23 h
fold lower AUC following oral dosing than at the i.v. dose ([1]; both, human, in vivo): about 7 fold
time at which plasma concentrations peaked ([1]; both, human, in vivo, iv): 0.25 h
time to reach maximal plasma concentrations ([1]; both, human, in vivo, po): ≤ 2 h
Tmax, median [1, 9]: approximately 1.5 hr
t½, mean [1, 9]: 16.1 h
AUC(0-t) ([1]; female, human, in vivo, iv, 300 ug, AUC0-24 h mean): 14.9 ng·h/mL
AUC(0-t) ([1]; female, human, in vivo, iv, 300 ug, AUC0-24 h range): 13.9 to 15.5 ng·h/mL
Cmax ([1]; female, human, in vivo, iv, 300 ug, Cmax mean): 13.1 ng/mL
Cmax ([1]; female, human, in vivo, iv, 300 ug, Cmax range): 12.1 to 14.8 ng/mL
oral F % mean [1, 10]: 4.9%
oral F % range [1, 10]: 3.4-6.1%
AUC(0-t) ([1]; female, human, in vivo, po, 600 ug, AUC0-24 h mean): 1.45 ng·h/mL
AUC(0-t) ([1]; female, human, in vivo, po, 600 ug, AUC0-24 h range): 1.05 to 1.79 ng·h/mL
Cmax ([1]; female, human, in vivo, po, 600 ug, Cmax mean): 0.221 ng/mL
Cmax ([1]; female, human, in vivo, po, 600 ug, Cmax range): 0.163 to 0.299 ng/mL
AUC(0-t) ([1]; human one, in vivo, iv, 300 ug, AUC 0-24 h, individual subject): 10.7 ng·h/mL
clearance [1, 11]: 423 mL/min
Cmax ([1]; human one, in vivo, iv, 300 ug, Cmax, individual subject): 6.76 ng/mL
Tmax [1, 11]: 0.25 h
AUC(0-t) ([1]; human one, in vivo, po, 600 ug, AUC 0-24 h, individual subject): 2.14 ng·h/mL
Tmax ([1]; human one, in vivo, po, 600 ug, individual subject): 1.5 h
AUC(0-t) ([1]; human two, in vivo, iv, 300 ug, AUC 0-24 h, individual subject): 15.5 ng·h/mL
clearance [1, 12]: 252 mL/min
Cmax ([1]; human two, in vivo, iv, 300 ug, Cmax, individual subject): 14.8 ng/mL
Tmax [1, 12]: 0.25 h
Vd [1, 12]: 225 L
half-life [1, 12]: 14.6 h
AUC(0-t) ([1]; human two, in vivo, po, 600 ug, AUC 0-24 h, individual subject): 1.05 ng·h/mL
Cmax ([1]; human two, in vivo, po, 600 ug, Cmax, individual subject): 0.163 ng/mL
oral F % in men relative to women ([1]; human, in vivo, po, 600 ug): two-fold greater
AUC(0-t) ([1]; male, human, in vivo, iv, 300 ug, AUC0-24 h mean): 11.5 ng·h/mL
AUC(0-t) ([1]; male, human, in vivo, iv, 300 ug, AUC0-24 h range): 9.31 to 14.3 ng·h/mL
Cmax ([1]; male, human, in vivo, iv, 300 ug, Cmax mean): 8.42 ng/mL
Cmax ([1]; male, human, in vivo, iv, 300 ug, Cmax range): 6.76 to 12.3 ng/mL
oral F % mean ([1]; male, human, in vivo, po, 600 ug): 11.1%
AUC(0-t) ([1]; male, human, in vivo, po, 600 ug, AUC0-24 h mean): 2.44 ng·h/mL
AUC(0-t) ([1]; male, human, in vivo, po, 600 ug, AUC0-24 h range): 1.91 to 3.02 ng·h/mL
Cmax ([1]; male, human, in vivo, po, 600 ug, Cmax mean): 0.389 ng/mL
Cmax ([1]; male, human, in vivo, po, 600 ug, Cmax range): 0.303 to 0.5 ng/mL
Compound: CN(C)C(=O)COc1ccc2c(c1)C[C@@H](NC[C@H](O)c1ccc(O)c(CCO)c1)CC2 [MN-221, bedoradrine sulfate]
FEV1 increase as compared to baseline (average) ([2]; 300 microgram 1-hr i.v. infusion, p=NS): 9.2%
Mean changes in PEFR (L/sec) ([2]; 600 and 1200 μg i.v. groups, greatest during 1-3 hr post infusion): higher than the all placebo group
Mean changes in PEFR (% predicted) ([2]; 600 and 1200 μg i.v. groups, greatest in first 3-4 hr post-infusion): higher than the all placebo group
FEV1 increase as compared to baseline (average) ([2]; 600 microgram 1-hr i.v. infusion, p=0.020): 16.2%
FEV1 increase as compared to baseline (average) ([2]; 1200 microgram 1-hr i.v. infusion, p=0.0025): 21.5%
FEV1 (%, predicted) ([2]; MN-221 treated subjects, i.v. infusion): improved
tolerability ([2]; i.v. infusions 300-1200 μg, COPD patients): well tolerated
